These results are taken from patent publication US5081261A, “4-(1-hydroxy-2-N-substituted sulfonamido) ethyl-5-hydroxy-2(5H)-furanones and 4-(N-substituted sulfonamido)-2-ethenyl-5-hydroxy-2(5H)-furanones as anti-inflammatory agents” (Allergan, Inc., priority 1990, dated 1992).

pIC50: −log10 of the molar value.

Test [1] addresses bee venom phospholipase A2 (Apis mellifera, UniProt P00630). Nature of the test: biochemical.
For test [2], the system named is phosphoinositide-specific phospholipase C. To be noted: reported for manoalide, Bennett et al; cited from earlier work.
The conditions of test [3]: prior art; cited from earlier work.

bee venom phospholipase A2, sequence (P00630 34-167 limits assumed): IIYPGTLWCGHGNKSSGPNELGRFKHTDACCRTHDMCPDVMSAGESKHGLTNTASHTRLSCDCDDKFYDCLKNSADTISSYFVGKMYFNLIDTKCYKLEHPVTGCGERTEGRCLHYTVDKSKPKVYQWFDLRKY

Usually pIC50 stands for the IC50 on a negative log10 scale, so that one unit is a factor of ten. Read a high pIC50 as a small IC50. In the case of `CC1=C(CC/C(C)=C/CCC2=CCC(C3=CC(=O)OC3O)OC2O)C(C)(C)CCC1` (stereo not drawn) [Compound 1], the pIC50 in test [1] is 7.52. In addition, the “inhibition of phosphoinositide-specific phospholipase C” value in test [2] was “inhibition”. Moreover, the biological properties entry in test [3] was “anti-inflammatory,immunosuppressive and analgesic properties”.

Take `CC1=C(CC/C(C)=C/CCC(C=O)=CCC(O)C2=CC(=O)OC2O)C(C)(C)CCC1` (stereo not drawn) [Compound 2]: the biological properties result in test [3] is “anti-inflammatory activity”.

On to `CC1=C(CC/C(C)=C/CCC(C=O)=CC=CC2=CC(=O)OC2O)C(C)(C)CCC1` (stereo not drawn) [Compound 3], for which the biological properties entry in test [3] is listed as “anti-inflammatory activity”.

On to `CCCCCCCCCCCCNS(=O)(=O)/C=C/C1=CC(=O)OC1O` (stereo not drawn) [Compound 4, 4-[2-(N-Dodecylsulfonamido)ethenyl]-5-hydroxy-2(5H)-furanone], for which the pIC50 in test [1] is 7.40.

As for `CCCCCCCCCCCCNS(=O)(=O)CC(O)C1=CC(=O)OC1O` (stereo not drawn) [Compound 5, 4-[1-Hydroxy-2-(N-dodecylsulfonamido)]ethyl-5-hydroxy-2(5H)-furanone], the pIC50 in test [1] was 7.00.

`CCCCCCCCCCCCNS(=O)(=O)CC(OC(C)=O)C1=CC(=O)OC1O` (stereo not drawn) [Compound 6, 4-[1-Acetoxy-2-(N-dodecylsulfonamido)]ethyl-5-hydroxy-2(5H)-furanone]: the negative logarithm of the IC50 (pIC50) in test [1] was 7.30.

For the compound `CCCCCCCCCCCCNS(=O)(=O)CC(OC(=O)CCCC(=O)O)C1=CC(=O)OC1O` (stereo not drawn) [Compound 7, 4-[1-Gluraroyloxy-2-(N-dodecylsulfonamido)]ethyl-5-hydroxy-2(5H)-furanone], the pIC50 in test [1] is 7.30.
